Legend:
Assay type in all cases: cell-based
SK-MEL-28 cells = assay: CellTiter-Glo cell viability, SK-MEL-28; conditions: 72 h
Experimental: (§1) The cell viability of 50 cancer cell lines was studied after treatment with Compound 121. Inhibition concentration values at 50% (IC50) were determined using CellTiter-Glo luminescent cell viability assay after incubation with different compound concentrations. GI50 values were determined according to the examples described above. Each cell line was treated with Compound 121, a standard chemotherapy drug as a reference control, and culture medium as a vehicle control.
(§2) All cells were cultured in media supplemented with 10-15% FBS at 37° C. in the presence of 5% CO2 and at 95% humidity. The culture medium was purchased from GIBCO or Sigma, USA. Cisplatin was chosen as the reference control and purchased from Hospira Australia Pty Ltd. The cell lines studied are presented in Table 5.
(§3) Cells were harvested during a logarithmic growth period and cell number count was determined using Count-star. Cell concentrations were adjusted to 4.44×10^4 cells/mL with respective culture medium. 90 μL of cell suspensions were added to two 96-well plates (plates A and B) with a final cell density of 4×10^3 cells/well.
(§4) 10 μL of culture medium was added to each well of plate A for TO reading. The plate was allowed to equilibrate at room temperature for approximately 30 min. 50 μL of CellTiter-Glo was added to each well and the contents were mixed for 5 min on an orbital shaker to induce cell lysis. The plate was allowed to incubate at room temperature for 20 min to stabilize luminescent signal.
(§5) 10 μM Compound 121 in media was serially diluted 3.16-fold to achieve 9 dose levels. Similarly, 100 μM reference control in media was serially diluted 3.16-fold to prepare reference control solutions. 10 μL drug solution and 10 μL of reference control was dispensed into each well in plate B.
(§6) Test plate B was incubated for 72 h in a humidified incubator at 37° C. in the presence of 5% CO2 and then subjected to CTG assay. The plate was allowed to equilibrate at room temperature for about 30 min. 50 μL of CellTiter-Glo was added to each well and the contents were mixed for 5 min on an orbital shaker to induce cell lysis. The plate was allowed to incubate at room temperature for 20 min to stabilize luminescent signal.
(§7) IC50 and GI50 values for each of the 50 cell lines are presented in Table 6 and were calculated based on the dose-response curves depicted in FIGS. 1-50. The dose-response curves were fitted using nonlinear regression model with a sigmoidal dose response. The formula for calculating survival rate was calculated by the formula:
(§8) Survival rate (%)=(LumTest article−LumMedium control)/(LumNone treated−LumMedium control)×100.

HT-1376 cells = assay: CellTiter-Glo cell viability, HT-1376; conditions: 72 h
Experimental: as §1, §2, §3, §4, §5, §6, §7, §8

KARPAS-299 cells = assay: CellTiter-Glo cell viability, KARPAS-299; conditions: 72 h
Experimental: as §1, §2, §3, §4, §5, §6, §7, §8

HT-29 cells = assay: CellTiter-Glo cell viability, HT-29; conditions: 72 h
Experimental: as §1, §2, §3, §4, §5, §6, §7, §8

SNU-5 cells = assay: CellTiter-Glo cell viability, SNU-5; conditions: SN1J-5 cells, 72 h
Experimental: as §1, §2, §3, §4, §5, §6, §7, §8

MES-SA/DX5 cells = assay: CellTiter-Glo cell viability, MES-SA/DX5; conditions: 72 h
Experimental: as §1, §2, §3, §4, §5, §6, §7, §8

SCC-4 cells = assay: CellTiter-Glo cell viability, SCC-4; conditions: 72 h
Experimental: as §1, §2, §3, §4, §5, §6, §7, §8

NCI-H1155 cells = assay: CellTiter-Glo cell viability, NCI-H1155; conditions: 72 h
Experimental: as §1, §2, §3, §4, §5, §6, §7, §8

786-O cells = assay: CellTiter-Glo cell viability, 786-O; conditions: 72 h
Experimental: as §1, §2, §3, §4, §5, §6, §7, §8

TJ905 cells = assay: CellTiter-Glo cell viability, TJ905; conditions: 72 h
Experimental: as §1, §2, §3, §4, §5, §6, §7, §8

MX-1 cells = assay: CellTiter-Glo cell viability, MX-1; conditions: 72 h
Experimental: as §1, §2, §3, §4, §5, §6, §7, §8

SK-OV-3 cells = assay: CellTiter-Glo cell viability, SK-OV-3; conditions: 72 h
Experimental: as §1, §2, §3, §4, §5, §6, §7, §8

NCI-H209 cells = assay: CellTiter-Glo cell viability, NCI-H209; conditions: 72 h
Experimental: as §1, §2, §3, §4, §5, §6, §7, §8

A2058 cells = assay: CellTiter-Glo cell viability, A2058; conditions: 72 h
Experimental: as §1, §2, §3, §4, §5, §6, §7, §8

A-172 cells = assay: CellTiter-Glo cell viability, A-172; conditions: 72 h
Experimental: as §1, §2, §3, §4, §5, §6, §7, §8

HUH-7 cells = assay: CellTiter-Glo cell viability, HUH-7; conditions: 72 h
Experimental: as §1, §2, §3, §4, §5, §6, §7, §8

JEG-3 cells = assay: CellTiter-Glo cell viability, JEG-3; conditions: 72 h
Experimental: as §1, §2, §3, §4, §5, §6, §7, §8

RPMI 8226 cells = assay: CellTiter-Glo cell viability, RPMI 8226; conditions: 72 h
Experimental: as §1, §2, §3, §4, §5, §6, §7, §8

K-562 cells = assay: CellTiter-Glo cell viability, K-562; conditions: 72 h
Experimental: as §1, §2, §3, §4, §5, §6, §7, §8

KP4 cells = assay: CellTiter-Glo cell viability, KP4; conditions: 72 h
Experimental: as §1, §2, §3, §4, §5, §6, §7, §8

HuCCT1 cells = assay: CellTiter-Glo cell viability, HuCCT1; conditions: 72 h
Experimental: as §1, §2, §3, §4, §5, §6, §7, §8

[1] = top conc. 10 μM Compound 121, 100 μM cisplatin

N.N.[Cl][Pt][Cl] [Cisplatin, reference compound]
GI50 (SK-MEL-28 cells; read-out: Absolute GI50): 7.09 µM | IC50 (SK-MEL-28 cells; read-out: Absolute IC50): 8.9 µM | % inhibition at top conc. (SK-MEL-28 cells; [1]): 99.29% | GI50 (HT-1376 cells; read-out: Absolute GI50): 2.64 µM | IC50 (HT-1376 cells; read-out: Absolute IC50): 3.26 µM | % inhibition at top conc. (HT-1376 cells; [1]): 91.76% | GI50 (KARPAS-299 cells; read-out: Absolute GI50): 1.49 µM | IC50 (KARPAS-299 cells; read-out: Absolute IC50): 1.63 µM | % inhibition at top conc. (KARPAS-299 cells; [1]): 99.99% | GI50 (HT-29 cells; read-out: Absolute GI50): 8.78 µM | IC50 (HT-29 cells; read-out: Absolute IC50): 9.8 µM | % inhibition at top conc. (HT-29 cells; [1]): 89.05% | GI50 (SNU-5 cells; read-out: Absolute GI50): 2.15 µM | IC50 (SNU-5 cells; read-out: Absolute IC50): 2.5 µM | % inhibition at top conc. (SNU-5 cells; [1]): 97.80% | GI50 (MES-SA/DX5 cells; read-out: Absolute GI50): 1.96 µM | IC50 (MES-SA/DX5 cells; read-out: Absolute IC50): 2.21 µM | % inhibition at top conc. (MES-SA/DX5 cells; [1]): 99.94% | GI50 (SCC-4 cells; read-out: Absolute GI50): 3.43 µM | IC50 (SCC-4 cells; read-out: Absolute IC50): 4.15 µM | % inhibition at top conc. (SCC-4 cells; [1]): 99.29% | GI50 (NCI-H1155 cells; read-out: Absolute GI50): 1.52 µM | IC50 (NCI-H1155 cells; read-out: Absolute IC50): 1.75 µM | % inhibition at top conc. (NCI-H1155 cells; [1]): 90.61% | GI50 (786-O cells; read-out: Absolute GI50): 1.6 µM | IC50 (786-O cells; read-out: Absolute IC50): 1.77 µM | % inhibition at top conc. (786-O cells; [1]): 98.46% | GI50 (TJ905 cells; read-out: Absolute GI50): 6.56 µM | IC50 (TJ905 cells; read-out: Absolute IC50): 9.85 µM | % inhibition at top conc. (TJ905 cells; [1]): 80.57% | GI50 (MX-1 cells; read-out: Absolute GI50): 5.69 µM | IC50 (MX-1 cells; read-out: Absolute IC50): 7.12 µM | % inhibition at top conc. (MX-1 cells; [1]): 98.97% | GI50 (SK-OV-3 cells; read-out: Absolute GI50): 5.08 µM | IC50 (SK-OV-3 cells; read-out: Absolute IC50): 6.69 µM | % inhibition at top conc. (SK-OV-3 cells; [1]): 81.79% | GI50 (NCI-H209 cells; read-out: Absolute GI50): 0.14 µM | IC50 (NCI-H209 cells; read-out: Absolute IC50): 0.23 µM | % inhibition at top conc. (NCI-H209 cells; [1]): 98.81% | GI50 (A2058 cells; read-out: Absolute GI50): 2.38 µM | IC50 (A2058 cells; read-out: Absolute IC50): 3.11 µM | % inhibition at top conc. (A2058 cells; [1]): 99.85% | GI50 (A-172 cells; read-out: Absolute GI50): 15.9 µM | IC50 (A-172 cells; read-out: Absolute IC50): 20.3 µM | % inhibition at top conc. (A-172 cells; [1]): 93.09% | GI50 (HUH-7 cells; read-out: Absolute GI50): 2.61 µM | IC50 (HUH-7 cells; read-out: Absolute IC50): 3.54 µM | % inhibition at top conc. (HUH-7 cells; [1]): 93.92% | GI50 (JEG-3 cells; read-out: Absolute GI50): 5.5 µM | IC50 (JEG-3 cells; read-out: Absolute IC50): 9.4 µM | % inhibition at top conc. (JEG-3 cells; [1]): 99.90% | GI50 (RPMI 8226 cells; read-out: Absolute GI50): 2.38 µM | IC50 (RPMI 8226 cells; read-out: Absolute IC50): 3.62 µM | % inhibition at top conc. (RPMI 8226 cells; [1]): 99.76% | GI50 (K-562 cells; read-out: Absolute GI50): 4.21 µM | IC50 (K-562 cells; read-out: Absolute IC50): 4.51 µM | % inhibition at top conc. (K-562 cells; [1]): 97.94% | GI50 (KP4 cells; read-out: Absolute GI50): 6.87 µM | IC50 (KP4 cells; read-out: Absolute IC50): 8.8 µM | % inhibition at top conc. (KP4 cells; [1]): 98.30% | GI50 (HuCCT1 cells; read-out: Absolute GI50): 6.59 µM | IC50 (HuCCT1 cells; read-out: Absolute IC50): 8.44 µM | % inhibition at top conc. (HuCCT1 cells; [1]): 90.42%
